Results on 14 compounds are retold here after US5004758A, “Water soluble camptothecin analogs useful for inhibiting the growth of animal tumor cells” (priority 1988, dated 1991).

The ILS is the gain in survival time of treated over control animals, in per cent. What is called IC50 is the concentration that inhibits the measured activity by half.

Counter-ions that a name gives are not always drawn. Like-named read-outs stand apart in the source and are kept apart here.

For one series, the system named is ip P388 leukemia. As to conditions: ip.
Another series deals with iv L1210 leukemia. The settings on record: iv L1210 (10^6 cells).
The test system of the next series is L1210 leukemia cells. Briefly: cells. The class given is cell-based, mouse. As to conditions: Mus musculus, L1210, read-out: In Vitro Activity IC50. On the procedure:
Cells were exposed continuously upon cloning into medium containing 0.2 percent Noble agar. After incubation at 37° C. in a CO2 incubator for 3 days, colonies were stained with viable cell specific formazan stain and, 24 hours later, were enumerated by a colony counter (Biotran II, New Brunswick Scientific Co., Edison, N.J.) adjusted to identify colonies of more than 50 cells. The concentration which reduced cloning efficiency by 50 percent IC50) was determined by interpolation.

Series [1] in a line: ip-implanted L1210 leukemia in mice.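 Note: each mouse received 10^6 L1210 cells intraperitoneally, with drug treatment also given by the i.p. route.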 As to conditions: mouse, in vivo, ip.
Protocol: (§1) For in vivo studies L1210 cells were implanted i.p. (10^6 per mouse)
(§2) and drugs were administered i.p. on Days 1 and 5. Increase in lifespan
(§3) (ILS) was based on median survival time of groups of 6 mice treated at th
maximally tolerated dose of the drugs.
The next series deals with ip L1210 leukemia. The series can be described thus: ip-implanted L1210 leukemia in mice.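 Note: each mouse received 10^6 L1210 cells intraperitoneally, with drug treatment also given by the i.p. route.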 The settings on record: ip L1210 (10^6 cells); drug i.p. Days 1 and 5 at maximally tolerated dose.
For another series, the system named is P388/Doxorubicin. The series can be described thus: ip P388/Doxorubicin multidrug resistant subline in mice. The settings on record: for ILS / NCK (net tumor cell kill): P388/Doxorubicin, ip, Days 1 and 5; for sensitivity / resistance of subline: P388/doxorubicin in mice.
For the next series, the system named is P388/Mitoxantrone. The series can be described thus: ip P388/Mitoxantrone multidrug resistant subline in mice. As to conditions: for ILS / NCK (net tumor cell kill): P388/Mitoxantrone, ip, Days 1 and 5.
The mark [2] stands for this setting: ip P388 (10^6 cells), 29 mg/kg, Days 1 & 5.

Protocol for P388/Doxorubicin: (§4) Increase in lifespan (ILS) is based on median survival time of groups of 6 mice. Net tumor cell kill (NCK) is calculated from median survival time by standard methods, since survival time is a linear function of the log tumor cell burden.
(§5) For the leukemias, these tumors are maintained in DBA/2 mice. […] The leukemias and the M5076 sarcoma are serially transplanted i.p. as ascites cell suspensions while the B16 melanoma lines and the colon carcinoma 26 are serially transplanted as s.c. solid tumors.
(§6) For therapeutic trials, tumors are aseptically removed from donor mice and prepared as suspensions for implantation ip into test animals. […] The test animals for the other tumor models are syngeneic female F1 hybrid B6D2F1 mice (C57B1/6 x DBA/2). The inoculum level varies with the type of tumor: P388 leukemia is inoculated at 10^6 cells per mouse, L1210 leukemia at 10^5 or 10^6 cells per mouse, M5076 sarcoma at 5×10^6 cells per mouse. […] After tumor inoculation, mice randomized to treatment groups comprised of 6-8 mice each. In each experiment, there are three groups of untreated control mice. Drugs are dissolved or suspended in appropriate aqueous vehicles and given by a variety of routes and schedules of administration over a range of dose levels. Animals are housed in shoebox cages and are monitored daily for mortality for 30 (L1210), 45 (P388) or 60 (B16, M5076, colon 26) days.
Protocol for P388/Mitoxantrone: as §4, §5, §6
Protocol for ip L1210 leukemia: as §1, §2, §3
maximally tolerated dose of the drugs.
Protocol for ip P388 leukemia: as §4
Animals were implanted ip with 10^6 cells. Increase in lifespan (ILS) is based on median survival time of groups of 6 mice relative to untreated controls. Long-term survivors were tumor-free on Day 45.
Tumors used in these studies--P388 leukemia and its doxorbicin--and mitoxanrone-resistant sublines, L1210 leukemia, B16 melanoma, B16 melanoma/F10 subline, M5076 sarcoma and colon carcinoma 26--are maintained by serial transplantation in syngeneic strains of mice. For the leukemias, these tumors are maintained in DBA/2 mice. The M5076 sarcoma, the B16 melanoma and its F10 subline are maintained in C57B1/6 mice and the colon sarcinoma 26 is maintained in BALB/c mice. The leukemias and the M5076 sarcoma are serially transplanted i.p. as ascites cell suspensions while the B16 melanoma lines and the colon carcinoma 26 are serially transplanted as s.c. solid tumors.
For therapeutic trials, tumors are aseptically removed from donor mice and prepared as suspensions for implantation ip into test animals. The test animals for the colon carcinoma 26 are female BALB/c mice (20-25 gm). The test animals for the other tumor models are syngeneic female F1 hybrid B6D2F1 mice (C57B1/6 x DBA/2). The inoculum level varies with the type of tumor: P388 leukemia is inoculated at 10^6 cells per mouse, L1210 leukemia at 10^5 or 10^6 cells per mouse, M5076 sarcoma at 5×10^6 cells per mouse. For implantation of the B16 melanoma lines and the colon carcinoma 26, s.c. tumors from donor mice are minced and homogenized in loose fitting teflon glass homogenizer to give a tumor brei. The inoculum levels are 0.5 ml of a 10 percent (w:v) brei of the B16 melanoma lines and 0.5 ml of a 5 percent (w:v) brei of colon carcinoma 26. After tumor inoculation, mice randomized to treatment groups comprised of 6-8 mice each. In each experiment, there are three groups of untreated control mice. Drugs are dissolved or suspended in appropriate aqueous vehicles and given by a variety of routes and schedules of administration over a range of dose levels. Animals are housed in shoebox cages and are monitored daily for mortality for 30 (L1210), 45 (P388) or 60 (B16, M5076, colon 26) days.
Description for iv L1210 leukemia: Animals were inoculated iv with 10^6 cells. Increase in lifespan (ILS) is based on median survival time of groups of 6 mice relative to untreated controls.
The protocols utilized for the evaluation of the antitumor activity of Formula (I) compounds are well established and widely utilized by those skilled in the art of assessing the activity of drugs in preclinical tumor models. These studies generally follow the protocols established by the National Cancer Institute as described by Geran et al., Cancer Chemotherapy Reports, Part 3, Vol. 3, 1-103, 1972.
Tumors used in these studies P388 leukemia, L1210 leukemia and Lewis lung carcinoma--are maintained by serial transplantation in syngeneic strains of mice, DBA/2 for the leukemias and C57B1/6 for Lewis lung carcinoma. The leukemias are serially transplanted i.p. as ascites cell suspensions while the Lewis lung carcinoma is serially transplanted as a s.c. solid tumor.
For therapeutic trials, tumors were aseptically removed from donor mice and prepared as suspensions for implantation into test animals which for each tumor are syngeneic female F1 hybrid B6D2F1 mice (C57B1/6×DBA/2). The inoculum level varies with the type of tumor: P388 leukemia is inoculated at 10^6 cells per mouse, L1210 leukemia at 10^5 or 10^6 cells per mouse, and Lewis lung carcinoma at 0.25 ml of a 10 percent (w:v) brei. […] After tumor inoculation, mice are randomized to treatment groups of 6 to 8 mice each. In each experiment, there are three groups of untreated control mice.
Drugs are dissolved or suspended in appropriate aqueous vehicles and given i.p. or i.v. on various treatment schedules over a range of dosage levels. Animals are housed in shoebox cages and monitored daily for mortality for 30 (L1210), 45 (P388) or 60 (Lewis lung) days.

With `CCC1(O)C(=O)OCc2c1cc1n(c2=O)Cc2cc3c(CN(C)C)c(O)ccc3nc2-1` (racemic) [Compound No. 1RS, (20 R,S)-9-Dimethylaminomethyl-10-hydroxycamptothecin Acetate Salt], the increase in lifespan (ILS) with ip P388 leukemia (ip P388 (10^6 cells), 3.6 mg/kg, Days 1 & 5) was 30%; in the series on ip P388 leukemia (ip P388 (10^6 cells), 7.2 mg/kg, Days 1 & 5), 80%; in the series with ip P388 leukemia (ip P388 (10^6 cells), 14 mg/kg, Days 1 & 5), 135%; in the series with ip P388 leukemia (setting [2]) it was 165%. Further, in the series on ip P388 leukemia (setting [2]), the “Long-term Survivors (tumor-free on Day 45)” value is 1/6.
Turning to `CC[C@@]1(O)C(=O)OCc2c1cc1n(c2=O)Cc2cc3c(CN(C)C)c(O)ccc3nc2-1` [1S (dihydrochloride salt)], the ILS in the series with iv L1210 leukemia (5.4 mg/kg, Days 1 & 5, route ip in table head (iv), Dihydrochloride Salt) amounted to 50%; with iv L1210 leukemia (9 mg/kg, Days 1 & 5, route ip in table head (iv), Dihydrochloride Salt), 83%; in the series on iv L1210 leukemia (15 mg/kg, Days 1 & 5, route ip in table head (iv in b213), Dihydrochloride Salt), 133%; with iv L1210 leukemia (15 mg/kg, Days 1 & 5, route ip in table head (iv in b213), listed as dihydrochloride, Dihydrochloride Salt), 133%.
On to `CC[C@@]1(O)C(=O)OCc2c1cc1n(c2=O)Cc2cc3c(CN(C)C)c(O)ccc3nc2-1` [1S (hydrochloride salt)], for which the increase in lifespan (ILS) was 50% in the series on iv L1210 leukemia (3.2 mg/kg, Days 1 & 5, route ip in table head (iv)); 92% in the series on iv L1210 leukemia (5.4 mg/kg, Days 1 & 5, route ip in table head (iv), Monohydrochloride Salt); 125% in the series on iv L1210 leukemia (9 mg/kg, Days 1 & 5, route ip in table head (iv), Monohydrochloride Salt); 175% in the series on iv L1210 leukemia (15 mg/kg, Days 1 & 5, route ip in table head (iv in b213), Monohydrochloride Salt); 175% with iv L1210 leukemia (15 mg/kg, Days 1 & 5, route ip in table head (iv in b213), listed as hydrochloride, Monohydrochloride Salt); “toxic” in the series with iv L1210 leukemia (25 mg/kg, Days 1 & 5, route ip in table head (iv)).
Turning to `CC[C@@]1(O)C(=O)OCc2c1cc1n(c2=O)Cc2cc3c(C=O)c(O)ccc3nc2-1` [2S, (20 S) 9-Formyl-10-hydroxycamptothecin], in the series with L1210 leukemia cells, the concentration for half-maximal inhibition (IC50) was found to be 260 nM. For the same compound, in series [1], the MTD worked out at 42 mg/kg. For the same compound, the “In Vivo Antitumor Activity ILS (increase in lifespan)” value in the series with ip L1210 leukemia is given as 75%.
On the same counts, the results for `CC[C@@]1(O)C(=O)OCc2c1cc1n(c2=O)Cc2cc3c(C[N+](C)(C)C)c(O)ccc3nc2-1` [3S, (20 S) 9-Trimethylammoniummethyl-10-hydroxycamptothecin Methanesulfonate Salt] are 150 nM, 42 mg/kg and > 200%.
As for `CC[C@@]1(O)C(=O)OCc2c1cc1n(c2=O)Cc2cc3c(CNCCO)c(O)ccc3nc2-1` [4S, (20 S) 9-(2'-Hydroxyethylamino) methyl-10-hydroxycamptothecin Acetate Salt], the half-inhibitory concentration (IC50) in the series with L1210 leukemia cells worked out at 250 nM. This compound registered an MTD in series [1] of 42 mg/kg. Besides, the “In Vivo Antitumor Activity ILS (increase in lifespan)” value in the series with ip L1210 leukemia was found to be 75%.
As for `CC[C@@]1(O)C(=O)OCc2c1cc1n(c2=O)Cc2cc3c(CN4CCOCC4)c(O)ccc3nc2-1` [5S], the half-maximal inhibitory concentration (IC50) in the series on L1210 leukemia cells turned out to be 370 nM. The compound further gave an MTD in series [1] of 100 mg/kg. Moreover, the “In Vivo Antitumor Activity ILS (increase in lifespan)” value in the series on ip L1210 leukemia turned out to be 83%.
As for `CC[C@@]1(O)C(=O)OCc2c1cc1n(c2=O)Cc2cc3c(CN4CCN(C)CC4)c(O)ccc3nc2-1` [6S], the half-inhibitory concentration (IC50) with L1210 leukemia cells turned out to be 72 nM. This compound showed an MTD in series [1] of 75 mg/kg. Moreover, the “In Vivo Antitumor Activity ILS (increase in lifespan)” value in the series on ip L1210 leukemia was > 200%.
On the same counts, the results for `CC[C@@]1(O)C(=O)OCc2c1cc1n(c2=O)Cc2cc3c(CN4CCC(N5CCCCC5)CC4)c(O)ccc3nc2-1` [7S] are 270 nM, > 42 mg/kg and 44%.
Take `CC[C@@]1(O)C(=O)OCc2c1cc1n(c2=O)Cc2cc3c(CNC4CC4)c(O)ccc3nc2-1` [8S]: the IC50 in the series on L1210 leukemia cells is 130 nM. This compound showed an MTD in series [1] of 25 mg/kg. Besides, in the series with ip L1210 leukemia, the “In Vivo Antitumor Activity ILS (increase in lifespan)” value turned out to be 131%.
Take `CC[C@@]1(O)C(=O)OCc2c1cc1n(c2=O)Cc2cc3c(COCCN(C)C)c(O)ccc3nc2-1` [13S, (20 S) 9-N,N-Dimethylaminoethyloxymethyl-10-hydroxycamptothecin Hydrochloride Salt]: the MTD in series [1] worked out at 42 mg/kg. Further, in the series with ip L1210 leukemia, the “In Vivo Antitumor Activity ILS (increase in lifespan)” value was found to be 188%.
For the compound `CC[C@@]1(O)C(=O)OCc2c1cc1n(c2=O)Cc2cc3cc(C=O)ccc3nc2-1` [19S, (20S) 10-Formylcamptothecin], in the series with L1210 leukemia cells, the IC50 stood at 62 nM.
Take `COc1cccc2c1C(=O)c1c(O)c3c(c(O)c1C2=O)C[C@@](O)(C(=O)CO)C[C@@H]3O[C@H]1C[C@H](N)[C@H](O)[C@H](C)O1` [Doxorubicin]: the ILS worked out at 117% in the series with ip P388 leukemia (P388, 1.2 mg/kg, Days 1 and 5); 167% in the series with ip P388 leukemia (P388, 1.9 mg/kg, Days 1 and 5); 172% in the series with ip P388 leukemia (P388, 3.2 mg/kg, Days 1 and 5); 156% in the series with ip P388 leukemia (P388, 5.4 mg/kg, Days 1 and 5); 233% in the series with ip P388 leukemia (P388, 9 mg/kg, Days 1 and 5); 19% with P388/Doxorubicin (1.2 mg/kg). The increase in lifespan (ILS) in the series on P388/Doxorubicin (1.9 mg/kg) was determined as 24%; with P388/Doxorubicin (3.2 mg/kg) it was 24%; with P388/Doxorubicin (5.4 mg/kg), 19%; in the series with P388/Doxorubicin (9 mg/kg) it was 14%; in the series on P388/Mitoxantrone (1.2 mg/kg), 0%; in the series on P388/Mitoxantrone (1.9 mg/kg), 0%. Besides, the increase in lifespan (ILS) in the series on P388/Mitoxantrone (3.2 mg/kg) turned out to be 0%; in the series on P388/Mitoxantrone (5.4 mg/kg) it was 4%; in the series on P388/Mitoxantrone (9 mg/kg), 7%. Besides, the “NCK (net tumor cell kill)” value in the series on ip P388 leukemia (P388, 1.2 mg/kg, Days 1 and 5) is listed as 3.0 log; in the series on ip P388 leukemia (P388, 1.9 mg/kg, Days 1 and 5) it was 5.1 log; with ip P388 leukemia (P388, 3.2 mg/kg, Days 1 and 5), 5.3 log; with ip P388 leukemia (P388, 5.4 mg/kg, Days 1 and 5), 4.6 log; with ip P388 leukemia (P388, 9 mg/kg, Days 1 and 5), 6.5 log; with P388/Doxorubicin (1.2 mg/kg) it was 0 log. For the same compound, the “NCK (net tumor cell kill)” value in the series with P388/Doxorubicin (1.9 mg/kg), with P388/Doxorubicin (3.2 mg/kg), in the series on P388/Doxorubicin (5.4 mg/kg), with P388/Doxorubicin (9 mg/kg), with P388/Mitoxantrone (1.2 mg/kg) and in the series on P388/Mitoxantrone (1.9 mg/kg) was 0 log throughout. Further, the “NCK (net tumor cell kill)” value in the series with P388/Mitoxantrone (3.2 mg/kg), with P388/Mitoxantrone (5.4 mg/kg) and with P388/Mitoxantrone (9 mg/kg) was 0 log throughout. Further, the “sensitivity / resistance of subline” value with P388/Doxorubicin and with P388/Mitoxantrone (P388/mitoxantrone in mice) was “expected resistance” in each case.
For the compound `CO[C@@]12[C@H](COC(N)=O)C3=C(C(=O)C(C)=C(N)C3=O)N1C[C@@H]1N[C@@H]12` [Mitomycin C], the ILS in the series with ip P388 leukemia (P388, 1.0 mg/kg, Days 1 and 5) amounted to 83%; in the series with ip P388 leukemia (P388, 1.6 mg/kg, Days 1 and 5), 106%; in the series with ip P388 leukemia (P388, 2.7 mg/kg, Days 1 and 5) it was 128%; in the series with ip P388 leukemia (P388, 4.5 mg/kg, Days 1 and 5) it was 156%; with ip P388 leukemia (P388, 7.5 mg/kg, Days 1 and 5), 178%; in the series with P388/Doxorubicin (1.0 mg/kg), 29%. Further, the increase in lifespan (ILS) in the series on P388/Doxorubicin (1.6 mg/kg) was found to be 48%; with P388/Doxorubicin (2.7 mg/kg), 52%; in the series on P388/Doxorubicin (4.5 mg/kg), 62%; in the series with P388/Doxorubicin (7.5 mg/kg), 52%; in the series on P388/Mitoxantrone (1.0 mg/kg), 14%; in the series with P388/Mitoxantrone (1.6 mg/kg), 29%. The ILS in the series with P388/Mitoxantrone (2.7 mg/kg) came out at 54%; in the series on P388/Mitoxantrone (4.5 mg/kg), 136%; in the series on P388/Mitoxantrone (7.5 mg/kg) it was 104%. In addition, the “NCK (net tumor cell kill)” value with ip P388 leukemia (P388, 1.0 mg/kg, Days 1 and 5) was determined as 1.7 log; with ip P388 leukemia (P388, 1.6 mg/kg, Days 1 and 5), 2.6 log; in the series with ip P388 leukemia (P388, 2.7 mg/kg, Days 1 and 5), 3.5 log; in the series on ip P388 leukemia (P388, 4.5 mg/kg, Days 1 and 5), 4.6 log; in the series with ip P388 leukemia (P388, 7.5 mg/kg, Days 1 and 5), 5.5 log; in the series with P388/Doxorubicin (1.0 mg/kg), 0 log. The “NCK (net tumor cell kill)” value is recorded as 0.3 log in the series on P388/Doxorubicin (1.6 mg/kg); 0.5 log in the series on P388/Doxorubicin (2.7 mg/kg); 1.0 log with P388/Doxorubicin (4.5 mg/kg); 0.5 log with P388/Doxorubicin (7.5 mg/kg); 0 log with P388/Mitoxantrone (1.0 mg/kg); 0 log in the series on P388/Mitoxantrone (1.6 mg/kg). Also, the figures for the “NCK (net tumor cell kill)” value in the series on P388/Mitoxantrone (2.7 mg/kg), with P388/Mitoxantrone (4.5 mg/kg) and in the series with P388/Mitoxantrone (7.5 mg/kg) were 1.8 log, 6.5 log and 5.5 log, respectively. Besides, the “sensitivity / resistance of subline” value with P388/Doxorubicin was “resistant”.
